How the values were obtained:
Streptococcus spp. KI-R = assay: Acid production inhibition by aldehydes in product vehicles, broth-tube technique; format: cell-based; conditions: 1 to 5 percent aldehyde
[1] = tested on: Lactobacillus casei ATCC 4646; assay: as above; format: cell-based; conditions: 1 to 5 percent aldehyde
[2] = tested on: Mixed human oral microorganisms; assay: as above; format: cell-based; conditions: 1 to 5 percent aldehyde
[3] = In vivo caries evaluation, laboratory animals (summary); conditions: one percent level in diet
Description: (§1) Standard laboratory techniques were used to complie the data presented. In each case the aldehyde was incorporated into each specimen's food in a one percent, by weight, quantity, over a period of several weeks. In all cases, caries reduction was noted.
(§2) The aldehydes tested in vivo were pyruvaldehyde, d,1-glyceraldehyde, crystalline dimer, glycolaldehyde, octanaldehyde, nonanaldehyde, decanaldehyde, undecylenic aldehyde, and lauric aldehyde. The polyaldehydes tested were dialdehyde starch, dialdehyde starch 50 percent oxidized, dialdehyde starch 90 percent oxidized, and dialdehyde galactomannan gum.

[4] = tested on: Mixed human oral microorganisms; assay: Growth inhibition by aldehydes in product vehicles, pour-plate technique; format: cell-based; conditions: 1 to 5 percent aldehyde
Procedure, shortened: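 Aldehydes (1 to 5 percent by weight) were formulated into syrups, candies, mouthwash, toothpaste or toothpowder, added directly or as aqueous extracts to medium without a carbon source mixed 1:1 with filter-sterilized human saliva. Sugar came from the product or added sucrose. Growth over up to 24 hours was read by pour-plate count.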

[5] = In vivo caries evaluation, Osborne-Mendel strain 1 rat; design: species or system rat (Osborne-Mendel strain 1); Caries Score, Mean Incidence / Caries Score, Mean Extent: scale not given here; conditions: Table II, 90 days
Description: as §1, §2
^(a) Agents were incorporated in the diet at a 1 percent level.

[6] = in compressed candy tablet, 2 h incubation
[7] = in compressed candy tablet, 5 h incubation
[8] = in compressed candy tablet, 24 h incubation
[9] = in dextrose syrup, 2 h incubation
[10] = in dextrose syrup, 5 h incubation
[11] = in dextrose syrup, 24 h incubation
[12] = in sucrose syrup, 2 h incubation
[13] = in sucrose syrup, 5 h incubation
[14] = in sucrose syrup, 24 h incubation
[15] = in toothpaste (aqueous extract), 2 h incubation
[16] = in toothpaste (aqueous extract), 5 h incubation
[17] = in toothpaste (aqueous extract), 24 h incubation
[18] = Student's test, 95 percent confidence limit

CCCCCCCCCC=O [Decanaldehyde]
Acid Production Inhibition (Streptococcus spp. KI-R; [6]): 50 Per Cent
Acid Production Inhibition (Streptococcus spp. KI-R; [7]): 85 Per Cent
Acid Production Inhibition (Streptococcus spp. KI-R; [8]): 98 Per Cent
Acid Production Inhibition (Streptococcus spp. KI-R; [9]): 35 Per Cent
Acid Production Inhibition (Streptococcus spp. KI-R; [10]): 91 Per Cent
Acid Production Inhibition (Streptococcus spp. KI-R; [11]): 89 Per Cent
Acid Production Inhibition (Streptococcus spp. KI-R; [12]): 75 Per cent
Acid Production Inhibition (Streptococcus spp. KI-R; [13]): 98 Per cent
Acid Production Inhibition (Streptococcus spp. KI-R; [14]): 100 Per cent
Acid Production Inhibition (Streptococcus spp. KI-R; [15]): 40 Per cent
Acid Production Inhibition (Streptococcus spp. KI-R; [16]): 100 Per cent
Acid Production Inhibition (Streptococcus spp. KI-R; [17]): 67 Per cent
Acid Production Inhibition [1, 6]: 0 Per Cent
Acid Production Inhibition [1, 7]: 67 Per Cent
Acid Production Inhibition [1, 8]: 97 Per Cent
Acid Production Inhibition [1, 9]: 67 Per Cent
Acid Production Inhibition [1, 10]: 77 Per Cent
Acid Production Inhibition [1, 11]: 96 Per Cent
Acid Production Inhibition [1, 12]: 0 Per cent
Acid Production Inhibition [1, 13]: 95 Per cent
Acid Production Inhibition [1, 14]: 99 Per cent
Acid Production Inhibition [1, 15]: 80 Per cent
Acid Production Inhibition [1, 16]: 80 Per cent
Acid Production Inhibition [1, 17]: 83 Per cent
Acid Production Inhibition [2, 6]: 100 Per Cent
Acid Production Inhibition [2, 7]: 100 Per Cent
Acid Production Inhibition [2, 8]: 19 Per Cent
Acid Production Inhibition [2, 9]: 0 Per Cent
Acid Production Inhibition [2, 10]: 95 Per Cent
Acid Production Inhibition [2, 11]: 91 Per Cent
Acid Production Inhibition [2, 12]: 78 Per cent
Acid Production Inhibition [2, 13]: 94 Per cent
Acid Production Inhibition [2, 14]: 95 Per cent
Acid Production Inhibition [2, 15]: 0 Per cent
Acid Production Inhibition [2, 16]: 0 Per cent
Acid Production Inhibition [2, 17]: 0 Per cent
Anticaries effect in laboratory animals [3]: significant anticaries activity
Growth Inhibition [4, 6]: > 99.99 Per Cent
Growth Inhibition [4, 7]: > 99.99 Per Cent
Growth Inhibition [4, 8]: 100 Per Cent
Growth Inhibition [4, 9]: > 99.99 Per Cent
Growth Inhibition [4, 10]: 100 Per Cent
Growth Inhibition [4, 11]: 100 Per Cent
Growth Inhibition [4, 12]: > 99.99 Per cent
Growth Inhibition [4, 13]: > 99.99 Per cent
Growth Inhibition [4, 14]: N.S.
Growth Inhibition [4, 15]: N.S.
Growth Inhibition [4, 16]: N.S.
Growth Inhibition [4, 17]: 0 Per cent
Caries Score, Mean Incidence ([5]; 1 percent in diet, RCD control 19.0 (octan-), 14.1 (nonan-), 17.6 (decan-), 22.3 (undecylenic)): 10.4
Caries Score, Mean Extent ([5]; 1 percent in diet, RCD control 49.6 (octan-), 34.3 (nonan-), 46.0 (decan-), 54.6 (undecylenic)): 24.1
Caries Extent Reduction, statistical evaluation [5, 18]: Significant
Caries Incidence Reduction, statistical evaluation [5, 18]: Significant
